Measured values taken from patent US20030083469A1, “Allosteric control of nuclear hormone receptors” (The Salk Institute for Biological Studies, priority 1995, published 2003).

Assays:
[1] = target: T1, Nurrl+RXR LBD (Homo sapiens, UniProt P19793); experiment: Transient transfection of Nurrl with RXR LBD on NBRE x3 reporter; type: cell-based, mouse Nurrl, human RXRα; conditions: NBRE×3; 100 nM LG69
T1 construct: or the human RXRα LBD (Glu 203 -Thr 462); expressed in transfected cells; host or cells: CV-1
T1 sequence (Q06219 whole entry partner, one chain of several, the tested form may be a part): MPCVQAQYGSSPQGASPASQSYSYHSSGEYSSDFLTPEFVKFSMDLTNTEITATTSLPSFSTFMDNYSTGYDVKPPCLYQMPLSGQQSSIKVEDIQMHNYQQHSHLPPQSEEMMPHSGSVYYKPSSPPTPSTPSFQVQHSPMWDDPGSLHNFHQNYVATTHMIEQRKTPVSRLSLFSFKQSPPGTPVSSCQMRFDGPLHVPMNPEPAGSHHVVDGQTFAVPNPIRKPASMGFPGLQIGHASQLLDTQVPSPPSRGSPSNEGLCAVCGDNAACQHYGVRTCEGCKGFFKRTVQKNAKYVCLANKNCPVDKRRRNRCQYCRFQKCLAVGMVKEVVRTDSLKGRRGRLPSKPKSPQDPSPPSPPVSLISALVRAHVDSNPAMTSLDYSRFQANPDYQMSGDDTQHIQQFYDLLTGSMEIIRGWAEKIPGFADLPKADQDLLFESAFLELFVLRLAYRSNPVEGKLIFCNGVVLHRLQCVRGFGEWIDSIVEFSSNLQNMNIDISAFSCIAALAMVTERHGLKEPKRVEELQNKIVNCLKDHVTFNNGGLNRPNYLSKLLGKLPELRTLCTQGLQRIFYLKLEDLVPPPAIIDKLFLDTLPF
Method: (§1) CV-1 cells were grown in Dulbecco's Modified Eagle's medium supplemented with 10% resin-charcoal stripped (Samuels et al., Endocrinology 105:80-85 (1979)) fetal bovine serum, 50 U/ml penicillin G and 50 μg/ml streptomycin sulfate (DMEM-FBS) at 37° C. in 5% CO2. One day prior to transfection, cells were plated to 50-80% confluence using phenol-red free DMEM-FBS. Cells were transfected by lipofection using N-{2-(2,3)-dioleoyloxy)propyl-N,N,N-trimethyl ammonium methyl sulfate} according to the manufacturer's instructions (DOTAP, Boehringer Mannheim). […] Cells were harvested and assayed for luciferase and β-galactosidase activity. All points were performed in triplicate in each experiment and varied by less than 10%. Each experiment was repeated three or more times with similar results.
This prompted an investigation of the question of whether the RXR DBD is required for activation through the Nurrl pathway. Thus, CV-1 cells were transfected with TK-LUC reporters (300 ng/10^5 cells), CMX-βgal (500 ng/10^5 cells) and the indicated CMX-receptor construct (20 ng/10^5 cells; see FIG. 7D) with or without CMX-RXR-LBD (100 ng/10^5 cells) . […] Normalized luciferase activity was determined and plotted as percent of maximal fold-activation where 100% is defined as the fold activation by T3R, RAR, VDR, the RXR LBD, or Nurrl+RXR LBD. […]

[2] = target: T2, RXR-T3R heterodimer (Homo sapiens, UniProt P19793); experiment: Ligand binding assay with RXR-T3R heterodimer; design: species or system human GST-hRXRα, chicken T3Rα1
T2 construct: made in house
T2 sequence (P19793 1-462): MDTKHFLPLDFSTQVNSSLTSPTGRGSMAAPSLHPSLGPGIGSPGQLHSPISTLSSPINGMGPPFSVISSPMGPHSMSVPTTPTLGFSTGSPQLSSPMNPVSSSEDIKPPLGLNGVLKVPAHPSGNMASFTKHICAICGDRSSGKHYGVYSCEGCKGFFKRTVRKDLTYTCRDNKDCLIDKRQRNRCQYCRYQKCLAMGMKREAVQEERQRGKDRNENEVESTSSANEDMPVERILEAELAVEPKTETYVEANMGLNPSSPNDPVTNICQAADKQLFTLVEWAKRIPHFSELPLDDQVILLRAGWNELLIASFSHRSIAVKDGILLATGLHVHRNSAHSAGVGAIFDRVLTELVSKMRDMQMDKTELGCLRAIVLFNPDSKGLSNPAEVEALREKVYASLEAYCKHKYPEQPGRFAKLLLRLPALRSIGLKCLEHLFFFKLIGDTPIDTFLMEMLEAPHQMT
T2 sequence (P04625 1-408 partner): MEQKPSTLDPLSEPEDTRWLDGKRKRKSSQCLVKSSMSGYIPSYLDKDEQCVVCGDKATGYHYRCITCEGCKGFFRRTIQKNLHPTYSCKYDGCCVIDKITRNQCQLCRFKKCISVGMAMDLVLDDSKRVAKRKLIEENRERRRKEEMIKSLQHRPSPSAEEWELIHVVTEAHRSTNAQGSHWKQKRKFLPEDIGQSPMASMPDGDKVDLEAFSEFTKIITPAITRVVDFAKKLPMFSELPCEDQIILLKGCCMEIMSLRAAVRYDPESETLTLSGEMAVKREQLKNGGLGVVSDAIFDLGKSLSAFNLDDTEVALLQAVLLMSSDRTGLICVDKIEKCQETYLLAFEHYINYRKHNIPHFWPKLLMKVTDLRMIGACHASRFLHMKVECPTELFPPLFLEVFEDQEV

[3] = target: T3, GAL-Nurrl + RXR-LBD (Homo sapiens, UniProt P19793); experiment: Transient transfection of GAL-Nurrl chimera with RXR LBD; type: cell-based, mouse Nurrl, human RXRα; conditions: RXR-LBD co-expressed with GAL-Nurrl; 100 nM
T3 construct: or the human RXRα LBD (Glu 203 -Thr 462); expressed in transfected cells; host or cells: CV-1
T3 sequence (Q06219 318-598 partner limits assumed, one chain of several): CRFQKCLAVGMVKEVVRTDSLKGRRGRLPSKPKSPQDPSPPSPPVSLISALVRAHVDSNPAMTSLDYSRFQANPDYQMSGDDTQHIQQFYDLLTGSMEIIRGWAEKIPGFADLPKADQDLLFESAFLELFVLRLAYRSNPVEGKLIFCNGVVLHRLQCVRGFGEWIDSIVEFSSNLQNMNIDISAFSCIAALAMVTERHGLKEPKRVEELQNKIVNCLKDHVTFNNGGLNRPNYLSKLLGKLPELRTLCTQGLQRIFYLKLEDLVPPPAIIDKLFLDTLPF
Method: as §1
(§2) Since RXR serves as a silent partner in the T3R and RAR pathways, it was next investigated whether RXR could serve as an active component in other complexes. To search for such complexes, the LBD of a number of nuclear receptors were fused to the GAL4 DBD, and tested to determine whether the RXR LBD could confer LG69 responsiveness upon these GAL-LBD chimeras. […] Normalized luciferase activity was determined and plotted as fold-activation relative to untreated cells.

[4] = target: T4, GAL chimera containing the LBD of VDR + RXR LBD (Homo sapiens, UniProt P19793); experiment: Transient transfection of GAL-VDR LBD chimera with RXR LBD; type: cell-based; conditions: 100 nM LG69
T4 construct: or the human RXRα LBD (Glu 203 -Thr 462); expressed in transfected cells; host or cells: CV-1
T4 sequence (P19793 203-462): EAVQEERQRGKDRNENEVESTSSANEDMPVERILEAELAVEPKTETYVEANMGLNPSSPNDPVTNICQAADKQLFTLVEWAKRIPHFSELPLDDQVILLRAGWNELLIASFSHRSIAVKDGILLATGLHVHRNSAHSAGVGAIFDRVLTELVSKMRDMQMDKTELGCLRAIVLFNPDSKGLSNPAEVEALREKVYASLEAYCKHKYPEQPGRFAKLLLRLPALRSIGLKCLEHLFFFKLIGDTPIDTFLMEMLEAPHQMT
Method: as §1, §2

Question: Which “LG69 responsiveness conferred upon Nurrl by the RXR LBD” value [1] does the source give for `CC=C(c1ccc(C(=O)O)cc1)c1cc2c(cc1C)C(C)(C)CCC2(C)C` [LG69, 4-{1-(3,5,5,8,8-pentamethyl-5,6,7,8-tetrahydro-2-napthalenyl)-1-propenyl}benzoic acid] here?
Answer: strong

Question: And the “change in [3H] LG69 binding” value ([2]; T3R with 1 μM T3 added)?
Answer: strongly diminished

Question: And the “change in [3H] LG69 binding” value ([2]; unliganded T3R)?
Answer: modest reduction

Question: What about the responsiveness to ligand [3] of the same compound?
Answer: strong responsiveness

Question: What about the LG69 inducibility [4] of the same compound?
Answer: not observed
